These results are taken from paper PMC3173978, “Kinetic Characterisation of Phosphofructokinase Purified from Setaria cervi: A Bovine Filarial Parasite” (Enzyme Research, 2011).

For test [1], the system named is T1, S. cervi PFK (phosphofructokinase).
T1 construct: native enzyme purified to electrophoretic homogeneity from adult female worms (from buffalo peritoneal folds); subunit mass 90 kDa
Kind of test: coupled assay (aldolase/TPI/GDH, NADH oxidation at […] nm), Lineweaver-Burk. Particulars: 50 and 100 μM ATP, 3.3 mM Mg2+, pH 8.0. It is filed as biochemical, Setaria cervi.

In test [2] the target is T1, S. cervi PFK (phosphofructokinase). The test is described as above. It is filed as biochemical, Setaria cervi. As to conditions: competitive vs F-6-P, 0.1 mM ATP, 3.3 mM Mg2+, Tris-HCl pH 8.0.

In the case of `O=P(O)(O)OC[C@H]1OC(O)(CO)[C@@H](O)[C@@H]1O` (stereo partly drawn) [F-6-P, D-fructose-6-phosphate], the Km (usually the substrate concentration at which the rate is half of its maximum) in test [1] turned out to be 1050 µM.

As to `O=P(O)(O)OC[C@H]1OC(O)(COP(=O)(O)O)[C@@H](O)[C@@H]1O` (stereo partly drawn) [FDP, D-fructose-1,6-diphosphate], the Ki (as a rule, the dissociation constant of the complex between target and ligand, obtained from inhibition or displacement) in test [2] (aldolase in coupling system acts on FDP) came out at 0.18 µM.

In the case of `C=C(OP(=O)(O)O)C(=O)O` [PEP, phosphoenolpyruvate], the Ki in test [2] amounted to 800 µM.
